glass transition temperature	Compound
74.60 °C	*O[Si](*)(C)CCCOc1ccc(C(=O)Oc2ccc(-c3ccc(OC(=O)c4ccc(OCC)cc4)cc3)cc2)cc1 (repeat unit)
270.00 °C	*CC(*)(C)C(=O)Oc1ccc(C(=O)c2ccccc2)c(O)c1 (repeat unit)
237.10 °C	*Oc1ccc(S(=O)(=O)c2ccc(Oc3ccc(C(C)(C)c4ccc(*)c(N)c4)cc3N)cc2)c(N)c1 (repeat unit)
273.00 °C	*Oc1c(Cl)cc(C(c2cc(Cl)c(OC(*)=O)c(Cl)c2)C(Cl)(Cl)Cl)cc1Cl (repeat unit)
127.00 °C	*c1cccc(OCCCCCCCCCCOc2cccc(N3C(=O)c4ccc(-c5cccc6c5C(=O)N(*)C6=O)cc4C3=O)c2)c1 (repeat unit)
353.00 °C	*c1ccc(-c2cc(C(C)(C)C)c(Oc3ccc(N4C(=O)c5ccc(Oc6ccc7c(c6)C(=O)N(*)C7=O)cc5C4=O)cc3C(F)(F)F)c(C(C)(C)C)c2)cc1 (repeat unit)
245.10 °C	*c1cc(C(=O)NCCCCCCCCCC)cc(N2C(=O)c3ccc(-c4ccc5c(c4)C(=O)N(*)C5=O)cc3C2=O)c1 (repeat unit)
45.00 °C	*CCOc1ccc(C(=O)OC(=O)c2ccc(O*)cc2)cc1 (repeat unit)
190.00 °C	*/C(C#N)=C/c1ccc(N(CC)Cc2ccccc2CN(CC)c2ccc(/C=C(\C#N)S(*)(=O)=O)cc2)cc1 (repeat unit)
415.00 °C	*c1ccc2nc(*)cc(-c3ccccc3)c2c1 (repeat unit)
271.00 °C	*c1ccc(Oc2ccc(-c3cccc(-c4ccc(Oc5ccc(-c6c7c(c(*)c8ccccc68)C(=O)N(c6ccccc6)C7=O)cc5)c(C(F)(F)F)c4)c3)cc2C(F)(F)F)cc1 (repeat unit)
224.50 °C	*c1ccc(Oc2ccc(Oc3ccc(N4C(=O)c5ccc(Oc6cc7ccccc7cc6Oc6ccc7c(c6)C(=O)N(*)C7=O)cc5C4=O)cc3)cc2)cc1 (repeat unit)
127.50 °C	*c1ccc(-c2ccc(-c3ccc4c(c3)C(CCCCCCCC)(CCCCCCCC)c3cc(-c5ccc(*)s5)ccc3-4)s2)cn1 (repeat unit)
246.00 °C	*C(=O)c1ccc2c(c1)C(=O)N(c1ccc(Oc3ccc(C(=O)c4ccc5cc(C(=O)c6ccc(Oc7ccc(N8C(=O)c9ccc(*)cc9C8=O)cc7)cc6)ccc5c4)cc3)cc1)C2=O (repeat unit)
20.00 °C	*CCOCCOCCOC(=O)c1ccc(-c2ccc(C(=O)O*)cc2)cc1 (repeat unit)
20.00 °C	*CNC(=O)OCC(OC(=O)NCc1ccc(C(C)(C)c2ccc(*)o2)o1)c1ccco1 (repeat unit)
111.00 °C	*CCCCCCCCCCOc1ccc(-c2cc(-c3ccc(-c4ccccc4)cc3)c(-c3ccc(NC(=O)c4ccc(C(=O)Nc5ccc(-c6c(-c7ccc(-c8ccccc8)cc7)cc(-c7ccc(O*)cc7)cc6-c6ccc(-c7ccccc7)cc6)cc5)cc4)cc3)c(-c3ccc(-c4ccccc4)cc3)c2)cc1 (repeat unit)
275.00 °C	*CCCc1nc2cc(-c3ccc4[nH]c(*)nc4c3)ccc2[nH]1 (repeat unit)
223.00 °C	*Oc1ccc(C2(c3ccc(Oc4ccc(C(=O)c5cccc(C(=O)c6ccc(*)cc6)c5)cc4)cc3)c3ccccc3-c3ccccc32)cc1 (repeat unit)

glass transition temperature	Compound
304.00 °C	*c1ccc(-c2nc3ccc(Oc4ccc5nc(*)c(-c6ccccc6)nc5c4)cc3nc2-c2ccccc2)cc1 (repeat unit)
294.00 °C	*Oc1ccc(C2(c3ccc(OC(*)=O)cc3)c3cc(OC)ccc3-c3ccc([N+](=O)[O-])cc32)cc1 (repeat unit)
95.00 °C	*Oc1ccc(Cc2ccc(OC(*)=S)cc2)cc1 (repeat unit)
26.70 °C	*O[Si](*)(C)CCCCCCCCCCC(=O)Oc1ccc(C(=O)Oc2ccc(-c3ccc(OCC(C)CC)cc3)cc2)cc1 (repeat unit)
1.00 °C	*CC(COC(=O)CCCCCN1C(=O)C2C3C=CC(C3)C2C1=O)O* (repeat unit)
189.6 °C	*Oc1ccc(S(=O)(=O)c2ccc(Oc3ccc(Cc4ccc(*)cc4)cc3)cc2)cc1 (repeat unit)
398.00 °C	*c1ccc(-c2ccc(-n3c(=O)c4cc5c(=O)n(*)c(=O)c5cc4c3=O)cc2F)c(F)c1 (repeat unit)
157.00 °C	*/C=C(\C#N)C(=O)NC1CCCCC1NC(=O)/C(C#N)=C/c1ccc(/C=C/c2ccc(N(CC)Cc3cccc(CN(CC)c4ccc(/C=C/c5ccc(*)s5)cc4)c3)cc2)s1 (repeat unit)
220.00 °C	*Nc1ccc(Oc2ccc(Nc3ccc4c(c3)c3cc(*)ccc3n4CC(CC)CCCC)cc2)cc1 (repeat unit)
52.00 °C	*CCOC(=O)Nc1cc(NC(=O)O*)ccc1C (repeat unit)
288.00 °C	*c1ccc(C(=O)Nc2ccc(-c3cc(Br)ccc3NC(=O)c3ccc(S(*)(=O)=O)cc3)cc2)cc1 (repeat unit)
196.00 °C	*Oc1ccc(S(=O)(=O)c2ccc(Oc3ccc(C4(c5ccc(Oc6ccc(S(=O)(=O)c7ccc(Oc8ccc(/C=C9\CCCC/C(=C\c%10ccc(*)cc%10)C9=O)cc8)cc7)cc6)cc5)CCCCCC4)cc3)cc2)cc1 (repeat unit)
232.00 °C	*c1ccc2c(c1)C(=O)N(c1cccc(NC(=O)C(F)(F)C(F)(F)C(F)(F)C(F)(F)C(=O)Nc3cccc(N4C(=O)c5ccc(C(*)(C(F)(F)F)C(F)(F)F)cc5C4=O)c3)c1)C2=O (repeat unit)
148.00 °C	*Oc1ccc(OC(=O)c2ccc(C(*)=O)cc2Sc2ccc3ccccc3c2)cc1 (repeat unit)
110.00 °C	*CCCCCCCN1C(=O)c2ccc(Oc3ccc4c(c3)C(=O)N(*)C4=O)cc2C1=O (repeat unit)
112.00 °C	*CC(*)c1c(F)c(F)c(C(F)(F)F)c(F)c1F (repeat unit)
258.00 °C	*c1ccc(Oc2ccc(C(=O)c3ccc(-c4ccc(C(=O)c5ccc(Oc6ccc(-c7nc(-c8ccccc8)[nH]c7*)cc6)cc5)cc4)cc3)cc2)cc1 (repeat unit)
271.00 °C	*c1ccc(Oc2cccc(Oc3ccc(N4C(=O)c5ccc(-c6ccc7c(c6)C(=O)N(*)C7=O)cc5C4=O)cc3)c2C#N)cc1 (repeat unit)

The next lines start with the molecule.

Compound	glass transition temperature
*CC(=O)C(*)c1ccccc1 (repeat unit)	110.00 °C
*CC(*)(C)c1ccc2ccccc2c1 (repeat unit)	208.00 °C
*c1ccc(Oc2ccc(N3C(=O)c4cc(-c5ccc([Si](C)(C)C)cc5)c(-c5cc6c(cc5-c5ccc([Si](C)(C)C)cc5)C(=O)N(*)C6=O)cc4C3=O)cc2)cc1 (repeat unit)	348.00 °C
*OC(C)CCCCC(*)=O (repeat unit)	-40.00 °C
*C(=O)Nc1ccc(Oc2cccc(NC(=O)c3ccc4c(c3)C(=O)N(c3ccc(Oc5ccc(N6C(=O)c7ccc(*)cc7C6=O)cc5)cc3)C4=O)c2)cc1 (repeat unit)	236.00 °C
*c1ccc(*)c(C(=O)c2ccccc2)c1 (repeat unit)	180.00 °C
*CC(CO*)(CS(=O)(=O)C(C)C)CS(=O)(=O)C(C)C (repeat unit)	91.00 °C
*CC(C)(CO*)COCCC#N (repeat unit)	-52.00 °C
*Oc1ccc(S(=O)(=O)c2ccc(Oc3ccc(C4(c5ccc(Oc6ccc(S(=O)(=O)c7ccc(Oc8ccc(/C=C9\CCC/C(=C\c%10ccc(*)cc%10)C9=O)cc8)cc7)cc6)cc5)CCCCC4)cc3)cc2)cc1 (repeat unit)	190.00 °C
*CC(*)(C#N)C(=O)OCC(C)C (repeat unit)	51.00 °C
*c1c(C)cc(-c2cc(C)c(N3C(=O)c4ccc(-c5ccc6c(c5)C(=O)N(*)C6=O)cc4C3=O)c(C)c2)cc1C (repeat unit)	285.00 °C
*CC(*)C(=O)NC(C)(C)CC(C)=O (repeat unit)	72.50 °C
*CCCCCCNC(=O)CCP(=O)(CCC(=O)N*)c1ccccc1 (repeat unit)	29.00 °C
*OP(=O)(Oc1ccc(OC)cc1)Oc1c(Br)cc(C(c2cc(Br)c(*)c(Br)c2)(C(F)(F)F)C(F)(F)F)cc1Br (repeat unit)	151.00 °C
*COC(=O)OCC1OC(OCC)OC1* (repeat unit)	23.50 °C
*c1ccc(-c2ccc(-c3ccc([Si](CCCC)(CCCC)[Si](*)(CCCC)CCCC)s3)s2)s1 (repeat unit)	-5.00 °C
*CC(*)OCC(CC)CCCC (repeat unit)	-66.00 °C
*Oc1ccc(NC(=O)c2ccc([Si](c3ccccc3)(c3ccccc3)c3ccc(C(*)=O)cc3)cc2)cc1 (repeat unit)	235.00 °C
*c1ccc2c(c1)C(=O)N(c1cccc(C(F)(F)C(F)(F)C(F)(F)C(F)(F)C(F)(F)c3cccc(N4C(=O)c5ccc(C(F)(F)C(F)(F)C(*)(F)F)cc5C4=O)c3)c1)C2=O (repeat unit)	111.00 °C
*c1ccc(Oc2ccc(N3C(=O)c4ccc(Oc5cccc(Oc6ccc7c(c6)C(=O)N(*)C7=O)c5)cc4C3=O)cc2)cc1 (repeat unit)	209.00 °C
*CC(OO*)c1ccc(C)cc1 (repeat unit)	4.60 °C
*c1cccc(P(=O)(c2cccc(-n3c(=O)c4c(-c5ccc(C(F)(F)F)cc5)c5c(=O)n(*)c(=O)c5c(-c5ccc(C(F)(F)F)cc5)c4c3=O)c2)c2cc(C(F)(F)F)cc(C(F)(F)F)c2)c1 (repeat unit)	310.00 °C
*=NP(=NP(=NC(=*)Oc1ccc(C(C)(C)c2ccccc2)cc1)(Oc1ccc(C(C)(C)c2ccccc2)cc1)Oc1ccc(C(C)(C)c2ccccc2)cc1)(Oc1ccc(C(C)(C)c2ccccc2)cc1)Oc1ccc(C(C)(C)c2ccccc2)cc1 (repeat unit)	55.00 °C
*c1ccc(Oc2ccc(N3C(=O)c4cccc(Oc5ccc(C(C)(C)c6ccc(Oc7cccc8c7C(=O)N(*)C8=O)cc6)cc5)c4C3=O)cc2)cc1 (repeat unit)	235.00 °C
